Experimental data from US11001563B2, “SSAO inhibitor” (SHANDONG DANHONG PHARMACEUTICAL CO., LTD., priority 2017, dated 2021).

Each compound was assayed against T1, VAP-1/SSAO (Homo sapiens (Human), UniProt Q16853) (assay: VAP-1 cell activity assay (HUVEC or CHO cells transfected with VAP-1/pCDNA (3.1) plasmid, Amplex Red)). Details: HUVEC or CHO cells transfected with VAP-1 plasmid; read-out: VAP-1/SSAO Cellular Inhibitory Activity IC50.
Assay type: cell-based
Protocol: The inhibition of the sample on VAP-1 cell activity was measured by using an Amplex® Red Monoamine Oxidase kit (Invitrogen #A12214).
The cultured HUVEC or CHO cells were plated into a 6-well plate at a density of 0.8 M/well, placed in a 37° C., 5% CO2 incubator for incubation for 24 hours, and then the cells was transferred with a Lipo2000 reagent and a VAP-1/pCDNA (3.1) plasmid, and liquid was changed for the cells after 5 hours (Lipo2000 was toxic to the cells); after 24 hours, the cells were digested and plated into 384-well plates with a density of 25 μl, 10000 cells/well, and liquid was replaced with medium without FBS for the cells after 6-7 hours, and the cell plates were incubated overnight at 37° C. in a 5% CO2 incubator.
1) Dilution of the compound: serial dilution in 4× gradient was carried out with 100% DMSO, 10 points were diluted, the starting concentration of the to-be-tested compound was 0.5 mM (final concentration was 1 μM); 100 nl of compound solution was transferred to a 384-well cell assay plate with ECHO. Negative control wells: 100 nl of DMSO; background control wells: 100 nl DMSO+25 μL medium.
2) The reaction was carried out in the dark at room temperature for 30 min.
3) Preparation of Amplex Red reagent+HRP+benzylamine substrate working solution: Amplex Red reagent+HRP+benzylamine substrate working solution (200 μM Amplex Red reagent+1 U/mL HRP+1 mM benzylamine): 45 μl of 20 mM Amplex Red reagent mother solution, 22.5 μl of 200 U/ml horseradish peroxidase (HRP) mother solution and 45 ul of 100 mM benzylamine were tanken and added to 4.3875 ml of 1× reaction buffer.
4) After 30 min, 25 μl of the substrate working solution was added to a 384-well plate, and a final concentration was 100 μM Amplex Red reagent+0.5 U/mL HRP+0.5 mM benzylamine, respectively.
5) The reaction was carried out in the dark at room temperature for 60 minutes, and the fluorescence value was measured by Envision: the excitation wave was 535 nm, and the emission wave was 590 nm.
6) Inhibition rate calculation formula: % inhibition rate=(1−(test hole minus background−positive control well minus background)/(negative control well minus background-positive control well minus background))*100
7) The data were analyzed with Prism. The IC50 of the sample against VAP-1 cells was calculated.

T1 sequence (Q16853 whole entry): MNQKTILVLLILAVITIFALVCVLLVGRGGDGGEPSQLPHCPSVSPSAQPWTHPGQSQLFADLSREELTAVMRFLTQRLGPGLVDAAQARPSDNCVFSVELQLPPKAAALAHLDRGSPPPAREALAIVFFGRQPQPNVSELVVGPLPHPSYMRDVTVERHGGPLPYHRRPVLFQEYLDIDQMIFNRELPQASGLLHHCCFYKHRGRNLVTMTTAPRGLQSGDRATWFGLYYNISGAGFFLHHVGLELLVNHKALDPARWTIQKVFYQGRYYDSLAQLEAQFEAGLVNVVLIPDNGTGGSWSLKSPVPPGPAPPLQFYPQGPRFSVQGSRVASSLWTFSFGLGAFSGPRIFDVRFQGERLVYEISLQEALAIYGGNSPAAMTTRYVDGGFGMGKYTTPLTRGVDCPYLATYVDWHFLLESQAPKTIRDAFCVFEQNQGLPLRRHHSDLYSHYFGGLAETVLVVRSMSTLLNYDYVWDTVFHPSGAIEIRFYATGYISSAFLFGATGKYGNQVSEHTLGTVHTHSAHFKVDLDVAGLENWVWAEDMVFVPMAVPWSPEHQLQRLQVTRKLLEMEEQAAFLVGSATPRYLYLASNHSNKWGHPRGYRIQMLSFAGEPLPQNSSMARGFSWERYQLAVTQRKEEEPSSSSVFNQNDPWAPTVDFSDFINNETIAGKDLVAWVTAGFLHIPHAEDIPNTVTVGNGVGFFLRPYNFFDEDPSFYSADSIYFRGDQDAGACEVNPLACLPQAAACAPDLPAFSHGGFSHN

| Structure (SMILES) | IC50 [pM] |
| --- | --- |
| NC/C(=C\F)COc1ccc(-c2nc(CC(F)(F)F)n[nH]2)cc1 [WX101] | 400 |
| CC(C)n1nc(-c2ccc(OC/C(=C/F)CN)cc2)nc1C1CC1 [WX091] | 1300 |
| NC/C(=C\F)COc1ccc(-c2nc(C3CC3)n(CC(F)(F)F)n2)cc1 [WX113] | 900 |
| NC/C(=C\F)COc1ccc(-c2nc(C3CC3)no2)cc1 [WX016] | 200 |
| NC/C(=C\F)COc1ccc(-c2nc(C(F)F)n[nH]2)cc1 [WX088] | 1600 |
| CC(C)n1nc(C(F)F)nc1-c1ccc(OC/C(=C/F)CN)cc1 [WX109] | 700 |
| Cn1nc(CC(F)(F)F)nc1-c1ccc(OC/C(=C/F)CN)cc1 [WX104] | 700 |
| NC/C(=C\F)COc1ccc(-c2nc(C3(F)CC3)n[nH]2)cc1 [WX087] | 800 |
| Cn1nc(-c2ccc(OC/C(=C/F)CN)cc2Cl)nc1N1CCOCC1 [WX107] | 1500 |
| CCn1nnc(-c2ccc(OC/C(=C/F)CN)cc2)n1 [WX014] | 300 |
| Cn1nc(-c2ccc(OC/C(=C/F)CN)cc2)nc1C1CCOCC1 [WX095] | 200 |
| NC/C(=C\F)COc1ccc(-c2nc(C3CC3)n[nH]2)cc1 [WX034] | 400 |
| NC/C(=C\F)COc1ccc(-c2nc(C3CC3)n(CCO)n2)cc1 [WX112] | 900 |
| CCCc1n[nH]c(-c2ccc(OC/C(=C/F)CN)cc2)n1 [WX097] | 300 |
| CCn1nc(C2(F)CC2)nc1-c1ccc(OC/C(=C/F)CN)cc1 [WX118] | 700 |

Each compound was assayed against T1, VAP-1/SSAO (assay: Human VAP-1 enzyme activity assay (Amplex Red Monoamine Oxidase kit)). Details: 10 nM VAP-1 enzyme, 30 min preincubation, benzylamine substrate; read-out: Human Recombinant VAP-1/SSAO Enzyme Inhibitory Activity IC50.
Assay type: biochemical
Protocol: Human VAP-1 enzyme activity assay:
The inhibition of the sample on VAP-enzyme activity was measured by using an Amplex® Red Monoamine Oxidase kit (Invitrogen #A12214). 100 nL of the gradiently-diluted to-be-tested compound (solvent DMSO) was added to a 384-well plate. 25 μL of 10 nM VAP-1 enzyme solution was added and incubated for 30 minutes at room temperature. A substrate mixture of VAP-1 enzyme (200 μM Amplex Red, 1 U/mL HRP, 1 mM Benzylamine) was added and incubated for 60 minutes at room temperature. After the incubation, the fluorescent signal was read with a microplate reader Envision (excitation light wavelength 530-560 nm, emission light wavelength 590 nm). The fluorescence signal value after the background signal was removed was analyzed by Prism software, and the IC50 of the sample against the VAP-1 enzyme was calculated.

| Structure (SMILES) | IC50 [pM] |
| --- | --- |
| CC(C)n1nc(-c2ccc(OC/C(=C/F)CN)cc2)nc1N1CCOCC1 [WX123] | 2200 |
| CC(C)(C)NC(=O)c1noc(-c2ccc(OC/C(=C/F)CN)cc2)n1 [WX042] | 1600 |
| CCn1nc(-c2ccc(OC/C(=C/F)CN)cc2)nc1N1CCOCC1 [WX125] | 1000 |
| NC/C(=C\F)COc1ccc(-c2nc(CC(F)(F)F)n[nH]2)cc1 [WX101] | 400 |
| NC/C(=C\F)COc1ccc(-c2nc(-c3ccccc3)no2)cc1 [WX017] | 800 |
| NC/C(=C\F)COc1cc(F)c(-c2nc(N3CCOCC3)n[nH]2)c(F)c1 [WX099] | 3400 |
| NC/C(=C\F)COc1ccc(-c2nc(C3CCOCC3)n[nH]2)cc1 [WX093] | 300 |
| Cc1ncc(-c2ccc(OC/C(=C/F)CN)cc2)s1 [WX024] | 300 |
| CC(C)n1nc(-c2ccc(OC/C(=C/F)CN)cc2)nc1C(F)F [WX124] | 1400 |
| CC(C)(C)C(=O)Nc1noc(-c2ccc(OC/C(=C/F)CN)cc2)n1 [WX077] | 1600 |
| Cn1nc(-c2ccc(OC/C(=C/F)CN)cc2)nc1C1(F)CC1 [WX127] | 800 |
| Cn1nc(C(C)(C)C)nc1-c1ccc(OC/C(=C/F)CN)cc1 [WX089] | 1900 |
| CS(=O)(=O)n1nc(C2CC2)nc1-c1ccc(OC/C(=C/F)CN)cc1 [WX062] | 1200 |
| NC/C(=C\F)COc1ccc(-c2nc(C(N)=O)n[nH]2)cc1 [WX072] | 700 |
| CCn1nc(-c2ccc(OC/C(=C/F)CN)cc2)nc1C1CC1 [WX092] | 1400 |
| NC/C(=C\F)COc1ccc(-c2nc(N3CCOCC3)n[nH]2)c(F)c1 [WX100] | 1100 |
| NC/C(=C\F)COc1ccc(-c2noc3ccccc23)cc1 [WX033] | 300 |
| NC/C(=C\F)COc1ccc(-c2noc(C3CC3)n2)cc1 [WX044] | 500 |
| NC/C(=C\F)COc1ccc(-c2nc(NC3CC3)n[nH]2)cc1 [WX081] | 500 |
| Cn1nc(-c2ccc(OC/C(=C/F)CN)cc2)nc1C(C)(C)C [WX090] | 1100 |
| CC(C)n1nc(-c2ccc(OC/C(=C/F)CN)cc2)nc1C1CC1 [WX091] | 1200 |
| CC(C)(C)c1nc(-c2ccc(OC/C(=C/F)CN)cc2)no1 [WX045] | 1100 |
| Cn1ncc(-c2ccc(OC/C(=C/F)CN)cc2)n1 [WX026] | 300 |
| NC/C(=C\F)COc1ccc(-c2n[nH]c(C(CO)CCl)n2)cc1 (centres unmarked) [WX083] | 400 |
| Cn1nc(-c2ccc(OC/C(=C/F)CN)cc2)nc1N1CCOCC1 [WX122] | 1000 |
| Cc1cnoc1-c1ccc(OC/C(=C/F)CN)cc1 [WX040] | 500 |

| Structure (SMILES) | IC50 [pM] |
| --- | --- |
| Cc1nc(-c2ccc(OC/C(=C/F)CN)cc2)no1 [WX028] | 700 |
| CCn1nc(-c2ccc(OC/C(=C/F)CN)cc2)nc1C(F)F [WX128] | 1000 |
| NC/C(=C\F)COc1ccc(-c2nc(C3CC3)n(CC(F)(F)F)n2)cc1 [WX113] | 1100 |
| NC/C(=C\F)COc1ccc(-c2nc(C3CC3)no2)cc1 [WX016] | 1000 |
| NC/C(=C\F)COc1ccc(-c2nc(C(F)F)n[nH]2)cc1 [WX088] | 400 |
| CC(C)n1nc(C(F)F)nc1-c1ccc(OC/C(=C/F)CN)cc1 [WX109] | 2800 |
| NC/C(=C\F)COc1ccc(-c2nnc(NC3CC3)o2)cc1 [WX079] | 200 |
| COc1ccc(Cn2nc(-c3ccc(OC/C(=C/F)CN)cc3)nc2NC2CC2)cc1 [WX080] | 3800 |
| NC/C(=C\F)COc1ccc(-c2nc3ccccc3o2)cc1 [WX023] | 400 |
| NC/C(=C\F)COc1ccc(-c2nc(C3CCCC3)n[nH]2)cc1 [WX064] | 800 |
| NC/C(=C\F)COc1ccc(-c2nc(CC3CCCC3)n[nH]2)cc1 [WX103] | 200 |
| Cc1nnc(-c2ccc(OC/C(=C/F)CN)cc2)o1 [WX004] | 2500 |
| NC/C(=C\F)COc1ccc(-c2nc(C3CCC3)n[nH]2)cc1 [WX085] | 200 |
| CCn1nc(-c2ccc(OC/C(=C/F)CN)cc2)nc1C1(F)CC1 [WX129] | 1000 |
| Cc1nc(-c2ccc(OC/C(=C/F)CN)cc2)sc1N1CCOCC1 [WX102] | 400 |
| NC/C(=C\F)COc1ccc(-c2nc(C3CC3(F)F)n[nH]2)cc1 (centres unmarked) [WX096] | 800 |
| Cn1nc(CC(F)(F)F)nc1-c1ccc(OC/C(=C/F)CN)cc1 [WX104] | 300 |
| NC/C(=C\F)COc1ccc(-c2nnn(C3CC3)n2)cc1 [WX049] | 300 |
| CC(C)(C)c1noc(-c2ccc(OC/C(=C/F)CN)cc2)n1 [WX019] | 2000 |
| NC/C(=C\F)COc1ccc(-c2nc(C3(F)CC3)n[nH]2)cc1 [WX087] | 300 |
| Cn1nc(-c2ccc(OC/C(=C/F)CN)cc2Cl)nc1N1CCOCC1 [WX107] | 900 |
| NC/C(=C\F)COc1ccc(-c2nccc(N3CCOCC3)n2)cc1 [WX070] | 1100 |
| CCn1nnc(-c2ccc(OC/C(=C/F)CN)cc2)n1 [WX014] | 800 |
| NC/C(=C\F)COc1ccc(-c2ncccn2)cc1 [WX021] | 300 |
| Cc1coc(-c2ccc(OC/C(=C/F)CN)cc2)n1 [WX039] | 500 |
| Cn1nc(C2CC2)nc1-c1ccc(OC/C(=C/F)CN)cc1 [WX076] | 2100 |

| Structure (SMILES) | IC50 [pM] |
| --- | --- |
| CC1(C)CN=C(c2ccc(OC/C(=C/F)CN)cc2)N1 [WX106] | 1100 |
| NC/C(=C\F)COc1ccc(-c2nc(C3CC3)no2)c(Cl)c1 [WX056] | 1700 |
| NC/C(=C\F)COc1ccc(N2C(=O)C(=O)c3ccccc32)cc1 [WX052] | 1300 |
| CC(C)(C)n1nnc(-c2ccc(OC/C(=C/F)CN)cc2)n1 [WX048] | 600 |
| Cn1nc(-c2ccc(OC/C(=C/F)CN)cc2)nc1C1CCOCC1 [WX095] | 2900 |
| NC/C(=C\F)COc1ccc(-c2nc(C3CC3)n[nH]2)cc1 [WX034] | 800 |
| NC/C(=C\F)COc1ccc(-c2nc(C3CC3)n[nH]2)c(F)c1 [WX094] | 300 |
| Cc1nc(-c2ccc(OC/C(=C/F)CN)cc2)sc1C [WX111] | 400 |
| Cc1csc(-c2ccc(OC/C(=C/F)CN)cc2)n1 [WX022] | 300 |
| Cc1n[nH]c(-c2ccc(OC/C(=C/F)CN)cc2)n1 [WX009] | 3700 |
| Cn1nc(-c2ccc(OC/C(=C/F)CN)cc2)nc1C1CC1 [WX075] | 700 |
| Cn1cnc(-c2ccc(OC/C(=C/F)CN)cc2)n1 [WX025] | 900 |
| NC/C(=C\F)COc1ccc(-c2nc3ccc(Cl)cc3[nH]2)cc1 [WX054] | 400 |
| NC/C(=C\F)COc1ccc(-c2nc(C3CC3)n(CCO)n2)cc1 [WX112] | 1700 |
| NC/C(=C\F)COc1ccc(-c2nc(N)no2)cc1 [WX074] | 1000 |
| Cc1cn[nH]c1-c1ccc(OC/C(=C/F)CN)cc1 [WX041] | 600 |
| CCCc1n[nH]c(-c2ccc(OC/C(=C/F)CN)cc2)n1 [WX097] | 500 |
| NC/C(=C\F)COc1ccc(-c2nc(N3CCOCC3)cs2)cc1 [WX086] | 9900 |
| NC/C(=C\F)COc1ccc(-c2nc(NC3CC3)no2)cc1 [WX082] | 300 |
| Cn1nc(-c2ccc(OC/C(=C/F)CN)cc2)nc1CC(F)(F)F [WX105] | 500 |
| NC/C(=C\F)COc1ccc(-c2nc(N3CCOCC3)n[nH]2)cc1 [WX073] | 900 |
| CC(C)(C)c1n[nH]c(-c2ccc(OC/C(=C/F)CN)cc2)n1 [WX035] | 2300 |
| NC/C(=C\F)COc1ccc(-c2nc(C(F)(F)F)n[nH]2)cc1 [WX036] | 4600 |
| CCn1nc(C2(F)CC2)nc1-c1ccc(OC/C(=C/F)CN)cc1 [WX118] | 700 |
| CC(C)n1nc(-c2ccc(OCC(=CF)CN)cc2)nc1C1(F)CC1 [WX130] | 1400 |
